According to article PMC12610274, “Identification of Marrubiin as a Cathepsin C Inhibitor for Treating Rheumatoid Arthritis” (Molecules, 2025):

Experiments:
[1] = Cytotoxicity assay, U937 cell line; type: cell-based; conditions: human, U937 cells
Procedure: (§1) RAW264.7 cells and U937 cells in the logarithmic growth phase were counted and diluted, and the concentrations of the single-cell suspensions of the two types of cells were adjusted to 5 × 10^4 cells/mL and 3 × 10^4 cells/mL, respectively. After thorough mixing, the cells were seeded into a 96-well plate, with 100 μL of cell suspension added to each well. Prepare the working solution of test compounds using the corresponding medium as the solvent, with the concentration of working solution being 2 times the final test concentration (2.5 μM, 5 μM, 10 μM, 20 μM, and 40 μM). Twenty-four hours after cell seeding, the compound working solutions were added to the compound test wells, and the same volume of medium was added to the negative control wells, followed by continuous incubation for another 24 h. Only the wells with the same volume but without cells served as the blank control group. The CellTiter-Lumi™ luminescent cell viability assay kit (Beyotime Biotechnology, Shanghai, China, C0065XL) was used to detect cell viability according to the standard operating procedures. Each group of tests was independently repeated at least 3 times, and IC50 values were calculated using SPSS 10.0.

[2] = Cytotoxicity assay, RAW264.7 cell line; type: cell-based; conditions: mouse, RAW264.7 cells
Procedure: as §1

[3] = tested on: NE; test: NSPs activity in U937 cells after 5 days of treatment, NE; type: cell-based, human; conditions: U937, 10 μM
Procedure: (§2) U937 cells in the logarithmic growth phase were collected and equally divided into six portions. Four of these portions were treated with DMSO solutions of the test compound at varying concentrations to achieve final concentrations of 1.25, 2.5, 5, and 10 μM, respectively. An equal volume of DMSO was added to one portion as a blank control, while another portion treated with a DMSO solution of AZD7986 served as a positive control. The cells were cultured under standard U937 conditions for 5 consecutive days, with daily medium changes and fresh compound treatments administered using the same protocol. Following 5 days of treatment, cells were harvested, washed twice thoroughly with phosphate-buffered saline, and lysed in phosphate-buffered saline containing 1% Triton X-100. The lysates were centrifuged to collect the supernatant, and protein concentrations were determined as previously described to ensure equal total protein loading across all samples. The prepared samples were stored at −20 °C until further analysis. Different assay buffers were prepared for diluting samples and measuring the activities of specific NSPs: a buffer containing 50 mM Tris and 750 mM NaCl (pH 7.4) was used for NE and PR3; a buffer containing 50 mM Tris, 750 mM NaCl, 5 mM EDTA (pH 7.4) was used for Cat G; and a buffer containing 25 mM MES, 50 mM NaCl, 5 mM DTT (pH 6.0) was used for CTSC. […]

[4] = tested on: PR3; test: NSPs activity in U937 cells after 5 days of treatment, PR3; type: cell-based, human; conditions: U937, 10 μM
Procedure: as §2

[5] = tested on: Cat G; test: NSPs activity in U937 cells after 5 days of treatment, Cat G; type: cell-based, human; conditions: U937, 10 μM
Procedure: as §2

[6] = target: T1, CTSC (Mus musculus, UniProt P97821); test: CTSC activity in blood and bone marrow of mice; type: in vivo, C57BL/6 mice; conditions: 30 mg/kg daily gavage, 7 days
T1 construct: from tissue; host or cells: mouse blood and bone marrow lysates
T1 sequence (P97821 25-462): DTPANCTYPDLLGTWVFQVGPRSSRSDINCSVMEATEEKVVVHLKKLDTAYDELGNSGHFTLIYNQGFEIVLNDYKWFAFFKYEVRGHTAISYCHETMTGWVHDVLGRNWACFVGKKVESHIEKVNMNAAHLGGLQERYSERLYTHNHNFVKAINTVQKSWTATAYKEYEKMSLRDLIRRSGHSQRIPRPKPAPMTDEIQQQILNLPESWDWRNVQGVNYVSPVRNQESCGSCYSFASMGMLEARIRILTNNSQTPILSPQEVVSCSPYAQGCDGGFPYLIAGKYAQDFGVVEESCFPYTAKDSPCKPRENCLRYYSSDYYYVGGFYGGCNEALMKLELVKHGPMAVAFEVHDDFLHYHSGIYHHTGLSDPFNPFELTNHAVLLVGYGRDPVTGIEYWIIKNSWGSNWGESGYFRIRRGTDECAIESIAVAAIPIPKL
Procedure: (§3) A total of 25 C57BL/6 mice (6–8 weeks old, weighing approximately 20 g, with equal numbers of males and females) were randomly divided into five groups. Mice in the compound-treated groups were orally administered the compound once daily at doses of 0.3, 3, and 30 mg/kg for 7 consecutive days. […] Mice in the normal group were given an equal volume of normal saline at the same time points. The body weight, death rate, and behavior were observed and recorded daily for one week. After 7 days, bone marrow and blood samples were collected from the mice and lysed using 8% Triton X-100 buffer. The lysates were stored at −20 °C until testing. The activity assays for CTSC and NSPs were performed as described above. The mice were anesthetized and the tissues were taken for H&E staining.

[7] = tested on: NE; test: NE activity in blood and bone marrow of mice; type: in vivo, C57BL/6 mice; conditions: 30 mg/kg daily gavage, 7 days
Procedure: as §3

[8] = tested on: PR3; test: PR3 activity in blood and bone marrow of mice; type: in vivo, C57BL/6 mice; conditions: 30 mg/kg daily gavage, 7 days
Procedure: as §3

[9] = tested on: Cat G; test: Cat G activity in blood and bone marrow of mice; type: in vivo, C57BL/6 mice; conditions: 30 mg/kg daily gavage, 7 days
Procedure: as §3

[10] = tested on: AIA model; test: Adjuvant-induced arthritis (AIA) model, disease severity; type: in vivo, Sprague-Dawley rats; conditions: rat AIA
Procedure: (§4) Thirty 4-week-old male Sprague-Dawley rats (weighing 120–130 g) were randomly divided into 6 groups (5 rats per group) after 1 week of adaptive feeding, namely the normal group, model group, low-dose experimental group (15 mg/kg), medium-dose experimental group (30 mg/kg), high-dose experimental group (60 mg/kg), and positive control group (30 mg/kg). Starting from Day 0 of the experiment, rats in the administration groups and model group were injected intradermally with 0.1 mL of CFA into the left hind paw to induce AIA, while rats in the normal group were injected intradermally with an equal volume (0.1 mL) of normal saline as a control. After 13 consecutive days of feeding, rats treated with CFA successfully developed typical AIA symptoms. […] During the experiment, the body weight, mental state, activity ability, hair color changes, and paw appearance changes of the rats were observed and recorded daily. In addition, on Day 0 of the experiment (baseline period), the basic paw volume of all rats was accurately measured using a plethysmometer, which served as a reference standard for subsequent evaluation of inflammation severity. From Day 13 to Day 28 of the experiment, the paw volume of the rats was measured repeatedly every 3 days. The degree of paw swelling was quantified by calculating the change in paw volume relative to the baseline. Meanwhile, the arthritis index score was calculated based on the range of paw redness and swelling, the severity of swelling, and the degree of limb movement limitation, so as to comprehensively evaluate the inflammatory state. On Day 28 of the experiment (the end of the administration cycle), blood samples were collected via abdominal aortic puncture. The blood samples were centrifuged at 3000 rpm for 20 min, and the upper serum was collected and stored at −20 °C for subsequent detection. The rats were then sacrificed, and their ankle joint tissues were harvested for subsequent pathological section observation and analysis. The cytokine levels in serum were measured. The activity detection of CTSC and NSPs was carried out according to the above methods.

[11] = target: T2, CTSC (Rattus norvegicus, UniProt P80067); test: AIA model, serum CTSC activity; type: in vivo, Sprague-Dawley rats; conditions: 30 mg/kg gavage, 15 days
T2 construct: from tissue; host or cells: serum of Sprague-Dawley rats (AIA model)
T2 sequence (P80067 25-462): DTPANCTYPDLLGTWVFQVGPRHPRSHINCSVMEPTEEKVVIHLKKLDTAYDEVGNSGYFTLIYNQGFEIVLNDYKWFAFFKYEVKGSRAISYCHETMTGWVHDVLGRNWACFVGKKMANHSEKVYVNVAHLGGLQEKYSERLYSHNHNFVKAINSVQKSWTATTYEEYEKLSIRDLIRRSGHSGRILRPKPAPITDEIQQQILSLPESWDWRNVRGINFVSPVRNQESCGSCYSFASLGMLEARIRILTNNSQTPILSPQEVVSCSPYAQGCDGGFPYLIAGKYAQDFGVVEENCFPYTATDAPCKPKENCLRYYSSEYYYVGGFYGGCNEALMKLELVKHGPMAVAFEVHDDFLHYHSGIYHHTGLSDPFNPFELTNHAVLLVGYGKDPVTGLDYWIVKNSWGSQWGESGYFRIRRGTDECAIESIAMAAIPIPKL
Procedure: as §4, with “Meanwhile, the arthritis index score was calculated based on the range of paw redness and swelling, the severity of swelling, and the degree of limb movement limitation, so as to comprehensively evaluate the inflammatory state. On Day 28 of the experiment (the end of the administration cycle), blood samples were collected via abdominal aortic puncture. The blood samples were centrifuged at 3000 rpm for 20 min, and the upper serum was collected and stored at −20 °C for subsequent detection. The rats were then sacrificed, and their ankle joint tissues were harvested for subsequent pathological section observation and analysis.” left out, “The activity detection of CTSC and NSPs was carried out according to the above methods.” left out

[12] = tested on: NE; test: AIA model, serum NE activity; type: in vivo, Sprague-Dawley rats; conditions: rat AIA, 30 mg/kg gavage, 15 days
Procedure: as §4, with “Meanwhile, the arthritis index score was calculated based on the range of paw redness and swelling, the severity of swelling, and the degree of limb movement limitation, so as to comprehensively evaluate the inflammatory state. On Day 28 of the experiment (the end of the administration cycle), blood samples were collected via abdominal aortic puncture. The blood samples were centrifuged at 3000 rpm for 20 min, and the upper serum was collected and stored at −20 °C for subsequent detection. The rats were then sacrificed, and their ankle joint tissues were harvested for subsequent pathological section observation and analysis.” left out, “The activity detection of CTSC and NSPs was carried out according to the above methods.” left out

[13] = tested on: PR3; test: AIA model, serum PR3 activity; type: in vivo, Sprague-Dawley rats; conditions: rat AIA, 30 mg/kg gavage, 15 days
Procedure: as §4, with “Meanwhile, the arthritis index score was calculated based on the range of paw redness and swelling, the severity of swelling, and the degree of limb movement limitation, so as to comprehensively evaluate the inflammatory state. On Day 28 of the experiment (the end of the administration cycle), blood samples were collected via abdominal aortic puncture. The blood samples were centrifuged at 3000 rpm for 20 min, and the upper serum was collected and stored at −20 °C for subsequent detection. The rats were then sacrificed, and their ankle joint tissues were harvested for subsequent pathological section observation and analysis.” left out, “The activity detection of CTSC and NSPs was carried out according to the above methods.” left out

[14] = tested on: Cat G; test: AIA model, serum Cat G activity; type: in vivo, Sprague-Dawley rats; conditions: rat AIA, 30 mg/kg gavage, 15 days
Procedure: as §4, with “Meanwhile, the arthritis index score was calculated based on the range of paw redness and swelling, the severity of swelling, and the degree of limb movement limitation, so as to comprehensively evaluate the inflammatory state. On Day 28 of the experiment (the end of the administration cycle), blood samples were collected via abdominal aortic puncture. The blood samples were centrifuged at 3000 rpm for 20 min, and the upper serum was collected and stored at −20 °C for subsequent detection. The rats were then sacrificed, and their ankle joint tissues were harvested for subsequent pathological section observation and analysis.” left out, “The activity detection of CTSC and NSPs was carried out according to the above methods.” left out

[15] = target: T3, CTSC (Homo sapiens, UniProt P53634); test: CTSC activity in U937 cells after 5 days of treatment; type: cell-based; design: endogenous in cells; host or cells: U937; conditions: U937, 5 days, marrubiin and AZD7986 at the same concentration
Procedure: as §2
Target sequence in this assay (P53634 25-463): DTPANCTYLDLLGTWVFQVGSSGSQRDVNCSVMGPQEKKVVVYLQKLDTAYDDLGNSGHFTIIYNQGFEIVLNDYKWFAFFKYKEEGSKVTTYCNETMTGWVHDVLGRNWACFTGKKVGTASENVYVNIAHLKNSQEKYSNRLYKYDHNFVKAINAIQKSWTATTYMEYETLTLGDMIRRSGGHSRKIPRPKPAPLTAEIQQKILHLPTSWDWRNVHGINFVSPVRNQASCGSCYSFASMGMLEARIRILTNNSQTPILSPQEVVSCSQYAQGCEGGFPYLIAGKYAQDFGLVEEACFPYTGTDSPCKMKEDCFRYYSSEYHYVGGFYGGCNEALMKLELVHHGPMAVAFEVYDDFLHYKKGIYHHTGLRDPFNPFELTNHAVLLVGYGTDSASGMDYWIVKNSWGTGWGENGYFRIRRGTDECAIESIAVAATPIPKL

[16] = target: T4, intracellular CTSC (Homo sapiens, UniProt P53634); test: CTSC cell-based assay using the U937 cell line; conditions: read-out: Cell-Based Enz (IC50: nM)
T4 construct: endogenous in cells; host or cells: U937
T4 sequence (P53634 25-463): as above
Procedure: Cell-based CTSC enzymatic activity assays were performed in 96-well clear-bottom black microplates. […] The detection substrate, H-Gly-Arg-AFC, was diluted to 100 µM in serum-free medium and stored for later use. U937 cells in the logarithmic growth phase were harvested, washed with PBS, and counted. A single-cell suspension was prepared at a density of 1.0 × 10^6 cells/mL using serum-free medium. 30 µL of cell suspension was seeded into each well of the 96-well plate. To the test wells, 10 µL of the compound working solution was added, while 10 µL of serum-free medium was added to the control wells. The plate was pre-incubated in a cell culture incubator at 37 °C for 3 h. Subsequently, 10 µL of H-Gly-Arg-AFC was added to initiate the enzymatic reaction, and the plate was further incubated at 37 °C for 1 h. Fluorescence measurements were performed using a multimode microplate reader at excitation/emission wavelengths of 400/505 nm. Each group of tests was independently repeated at least 3 times, and IC50 values were calculated using SPSS 10.0.

[17] = target: T3, CTSC; test: Human recombinant CTSC isolated enzyme assay; type: biochemical; design: purchased R&D Systems
Procedure: Both recombinant CTSL and CTSC for in vitro cell-free-based enzymatic activity assay can be purchased from R&D Systems (Minneapolis, MN, USA), a biotechnology company. According to the standardized procedures and material ratios provided by R&D Systems, prepare the activation solution (25 mM MES + 5 mM DTT, pH 6.0) and the assay solution (25 mM MES + 50 mM NaCl + 5 mM DTT, pH 6.0) in advance for later use. Dilute the detection substrate H-Gly-Arg-AMC to a 200 µM solution with the assay solution for standby. Prepare the working solution of compounds to be tested using the assay solution, with the concentration of working solution being 10 times the final test concentration. Dilute CTSC and CTSL, respectively, with cold activation solution. Thoroughly mix the two activation solutions containing the proteins to achieve final concentrations of 300 nM for CTSL and 440 nM for CTSC. After co-incubation for 1 h, the activated CTSC treated with CTSL can be used for the enzymatic activity inhibition efficacy test of compounds. Dilute the activated CTSC to 4.4 nM with cold assay buffer. Incubate 4 μL of the activated CTSC with 1 μL of the compound working solution (test group) or 1 μL of blank assay solution (control group) at room temperature for 3 h. Then, add 5 μL of the detection substrate to achieve a final concentration of 100 μM. Mix 5 µL each of the assay solution and the substrate solution as the blank group. After 1 h, the absorbance of detection substrate was measured using a multifunctional microplate reader at excitation/emission wavelengths of 380 nm/460 nm. The inhibitory efficacy of molecules on enzyme activity was calculated based on the absorbance difference between test group and control group. […] Each group of tests mentioned above was independently repeated at least 3 times, and IC50 values were calculated using SPSS 10.0.
Target sequence in this assay (P53634 25-134 limits assumed): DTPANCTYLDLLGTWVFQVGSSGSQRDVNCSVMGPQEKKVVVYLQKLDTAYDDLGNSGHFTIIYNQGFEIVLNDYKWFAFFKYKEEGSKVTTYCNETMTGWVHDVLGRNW
Target sequence in this assay (P53634 231-394 limits assumed): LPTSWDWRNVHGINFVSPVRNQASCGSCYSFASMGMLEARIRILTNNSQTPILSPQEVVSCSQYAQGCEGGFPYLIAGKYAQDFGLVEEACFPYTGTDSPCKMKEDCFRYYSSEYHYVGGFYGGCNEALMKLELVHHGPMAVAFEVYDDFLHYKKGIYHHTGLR
Target sequence in this assay (P53634 395-463 limits assumed): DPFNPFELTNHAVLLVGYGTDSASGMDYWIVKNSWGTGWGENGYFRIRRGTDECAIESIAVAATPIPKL

Cn1c(=O)oc2ccc(-c3ccc(C[C@@H](C#N)NC(=O)[C@@H]4CNCCCO4)cc3)cc21 [AZD7986, reference compound]
IC50 at 24 h [1]: > 10 µM | IC50 at 24 h [2]: > 10 µM | NE activity, % of DMSO group [3]: 5.1% | PR3 activity, % of DMSO group [4]: 8.1% | Cat G activity, % of DMSO group [5]: 12.7% | remaining activity rate of CTSC ([6]; blood): ~18.3% | remaining activity rate of CTSC ([6]; bone marrow): approximately 10.6% | remaining activity rate of NE ([7]; blood): ~8.1% | remaining activity rate of NE ([7]; bone marrow): ~11.7% | remaining activity rate of PR3 ([8]; blood): ~10.3% | remaining activity rate of PR3 ([8]; bone marrow): ~15.8% | remaining activity rate of Cat G ([9]; blood): ~35.2% | remaining activity rate of Cat G ([9]; bone marrow): ~30.5% | histopathology of ankle joints (H&E, Safranin O/Fast Green) ([10]; 30 mg/kg): reduced the histopathological statement | clinical score vs AIA model group ([10]; 30 mg/kg gavage, from day 16 onwards): significantly lower than those of AIA model group | volume and thickness of inflamed paws ([10]; 30 mg/kg, days 16 to 28): continuous reduction in volume and a gradual decrease in thickness | body weight recovery ([10]; 30 mg/kg, from day 16 onwards): most significant weight recovery effects | serum CTSC activity, % of control group [11]: approximately 35% | serum NE activity, % of control group [12]: ~30% | serum PR3 activity, % of control group [13]: ~40% | serum Cat G activity, % of control group [14]: approximately 58% | residual CTSC activity [15]: less than 8%

CC(=O)OCC1=CO[C@@H](OC(=O)CC(C)C)[C@H]2C1=C[C@H](OC(=O)CC(C)(C)OC(C)=O)[C@]21CO1 [Acevaltrate, acevaltrate]
IC50 [16]: 702.1 ± 3.2 nM | IC50 at 24 h [1]: > 10 µM | IC50 at 24 h [2]: > 10 µM | IC50 ([17]; human recombinant CTSC, cell-free, 12-point dose-response, read-out: CTSC Enz (IC50: nM)): 1053 ± 2.2 nM

N[C@@H]1CON=C1O [D-cycloserine]
enzymatic inhibitory activity against CTSC ([17]; result in words): no enzymatic inhibitory activity at all
